Assay results from patent publication US20230398135A1, “COMPOSITIONS INCLUDING CANNABINOID AND USE THEREOF IN THE MANUFACTURE OF A MEDICAMENT FOR THE TREATMENT OF INFLAMMATION IN A SUBJECT” (priority 2022, published 2023).

Tests used:
COX-2 [1] = biological target: T1, COX-2 (Homo sapiens, UniProt P35354); assay: fluorometric COX-2 inhibition assay (Cayman Chemical kit); assay type: biochemical; conditions: for COX-2 inhibition corresponding to plateau (FIGS. 3A, 3B): after molar concentrations exceeded 10 μM; for inhibition at 50 µM: read-out: COX-2 Inhibition (%); for COX-2 inhibitory effect (FIG. 1): used individually at 50 μM, 10 μM, 2 μM, 0.04 μM
T1 construct: purchased BioVision Inc. (Mountain View, CA, USA)
T1 sequence (P35354 18-604): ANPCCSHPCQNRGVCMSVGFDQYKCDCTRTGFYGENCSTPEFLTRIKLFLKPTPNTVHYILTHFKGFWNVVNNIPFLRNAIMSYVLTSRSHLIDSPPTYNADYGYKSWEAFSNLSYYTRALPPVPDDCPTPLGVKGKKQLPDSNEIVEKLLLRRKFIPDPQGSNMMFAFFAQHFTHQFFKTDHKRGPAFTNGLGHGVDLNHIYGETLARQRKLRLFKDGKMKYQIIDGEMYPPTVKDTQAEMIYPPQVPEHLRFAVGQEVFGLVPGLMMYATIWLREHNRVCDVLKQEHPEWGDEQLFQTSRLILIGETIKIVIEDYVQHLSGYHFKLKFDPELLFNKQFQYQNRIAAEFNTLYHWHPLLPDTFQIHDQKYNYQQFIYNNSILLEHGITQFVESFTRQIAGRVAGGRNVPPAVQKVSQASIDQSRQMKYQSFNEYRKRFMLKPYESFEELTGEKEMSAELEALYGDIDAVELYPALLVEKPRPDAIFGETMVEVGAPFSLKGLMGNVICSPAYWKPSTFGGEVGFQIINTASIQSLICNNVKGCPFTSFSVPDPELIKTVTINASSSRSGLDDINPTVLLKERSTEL
Method: FIG. 1 is a bar diagram illustrating COX-2 inhibitory effects of CBD and CBG used individually at different molar concentrations according to some embodiments of the present disclosure. Table 1 illustrates COX-2 inhibitory effects of some skincare active components used individually according to some embodiments of the present disclosure. The COX-2 inhibitory effects in FIG. 1 and Table 1 were determined using a fluorometric COX-2 inhibition kit from Cayman Chemical Company (Ann Arbor, Michigan, USA) according to the method of COX-2 inhibition assay as described elsewhere in the present disclosure.
Table 2 illustrates COX-2 inhibitory effects of exemplary compositions of CBD and CBG according to some embodiments of the present disclosure. The COX-2 inhibitory effects in Table 2 were determined using a fluorometric COX-2 inhibition kit from Cayman Chemical Company (Ann Arbor, Michigan, USA) according to the method of COX-2 inhibition assay as described elsewhere in the present disclosure. The compositions A, B, and C in Table 2 may be at 10 μM.
FIG. 2 is a bar diagram illustrating COX-2 inhibitory effects of CBD and CBG used individually and in combination at different molar concentrations according to some embodiments of the present disclosure. The COX-2 inhibitory effects in FIG. 1 and Table 1 were determined using a fluorometric COX-2 inhibition kit from Cayman Chemical Company (Ann Arbor, Michigan, USA) according to the method of COX-2 inhibition assay as described in the present disclosure. In FIG. 2. COMIX represents a composition (or mixture) of CBD, CBG, NMN, BAK, AGE Defense, and RC Bio. Concentrations of CBD, CBG, NMN, BAK, AGE Defense, and RC Bio in COMIX were 10 ug/mL, 2 ug/mL, 2 ug/mL, 2 ug/mL, 2 ug/mL, and 2 ug/mL, respectively. The COX-2 inhibitory effect of COMIX was measured for providing an assay basis for designing subsequent COX-2 inhibition assays. MIX′ represents a composition (or mixture) of CBD and CBG at a molar concentration ratio of 1:1. […] When a total CBD/CBG molar concentration of MIX′ was 0.5 μM, molar concentrations of CBD and CBG in MIX′ were 0.25 μM. Similarly, when a total CBD/CBG molar concentration of MIX′ was 1.0 μM, molar concentrations of CBD and CBG in MIX′were 0.5 μM; when a total CBD/CBG molar concentration of MIX′ was 5 μM, molar concentrations of CBD and CBG in MIX were 2.5 μM; when a total CBD/CBG molar concentration of MIX′ was 10 μM, molar concentrations of CBD and CBG in MIX′ were 5 μM; and when a total CBD/CBG molar concentration of MIX′ was 20 μM, molar concentrations of CBD and CBG in MIX′ were 10.0 μM.
(§1) Materials and methods: the inhibitory effects of test samples (e.g., CBD, CBG, BAK, Mix, a positive control, and/or other compounds and compositions described in the present disclosure) against COX-2 were measured by a fluorometric COX-2 inhibition kit from Cayman Chemicals (Ann Arbor, Michigan, USA) or BioVision Inc. (Mountain View, CA, USA) following the manufacturer's instructions. Briefly, a COX-2 enzyme was reconstituted with 110 μL of sterile distilled H2O and arachidonic acid was dissolved in 55 μL ethanol. COX cofactor was diluted with COX assay buffer for 200 times, and arachidonic acid and NaOH were mixed in a molar ratio of 1:1 before it was diluted for 10 times for further use. COX assay buffer (84 μL), COX probe (1 μL), diluted COX cofactor (2 μL), COX-2 enzyme (1 μL), and test samples (2 μL) were incubated in a 96-well plate at room temperature for 10 min. Next, diluted arachidonic acid/NaOH solution (10 μL) was added to each well of the 96-well plate to initiate the reaction.

COX-2 [2] = biological target: T1, COX-2; assay: fluorometric COX-2 inhibition assay (BioVision kit); assay type: biochemical; conditions: for COX-2 inhibitory effect compared with personal care ingredients (terpenes): all at 50 μM, FIGS. 4-6; for inhibition at 10 µM / inhibition at 50 µM: read-out: COX-2 Inhibition (%); for inhibition at 12.5 µM: read-out: COX-2 inhibitions (FIG. 5)
Method: The COX-2 inhibitory effects in FIGS. 4-6 were determined using a fluorometric COX-2 inhibition kit from BioVision Inc. (Mountain View, CA, USA) according to the methods described in COX-2 inhibition assay. The personal care ingredients Lim, Lin, Ner, Myc, α-pin, β-car, and α-bis represent limonene, linalool, nerolidol, myrcene, alpha-pinene, beta-caryophyllene, and alpha-bisabolol, respectively. In FIGS. 5 and 6, MIX represents a composition (or mixture) of CBD, CBG, and BAK at a molar concentration ratio of 1:1:1. MIX 50 μM, MIX 25 μM, and 12.5 μM represent total CBD/CBG/BAK molar concentrations of MIX being 50 μM, 25 μM, and 12.5 μM, respectively. CBD 50 μM represents that CBD is used individually and a molar concentration of CBD is 50 μM.
as §1, with “reaction. The fluorescence of each well was recorded at an excitation wavelength of 535 nm and an emission wavelength of 587 nm with a kinetic mode for 10 min using a plate reader (SpectraMax® M2, Molecular Devices Corp., operated by SoftmaxPro® v.4.6 software, Sunnyvale, CA, USA). […] Two points (T1 and T2) in a linear range of a plot related to the recorded fluorescence were used to obtain corresponding fluorescence values (RFU1 and RFU2). Then, a slope for a sample was calculated by dividing a net ΔRFU (RFU2-RFU1) value by the time ΔT (T2-T1). An inhibition (%) of COX-2 of the sample was determined as the following equation: Inhibition (%)=((slope of control−slope of the sample)/slope of control)×100.” for “reaction.”

TNF-α = assay: suppression of TNF-α in inflammatory model induced by lipopolysaccharides and nigericin; assay type: cell-based; conditions: 20 μM; LPS and nigericin model
Method: (§2) FIGS. 7 and 8 are bar diagrams illustrating exemplary abilities of CBG, BAK, and a composition (i.e., Mix) of CBD, CBG, and BAK at a molar concentration of 1:1:1 to suppress activities of pro-inflammatory cytokines according to some embodiments of the present disclosure. In FIGS. 7 and 8, Model represents an inflammatory model that was induced by lipopolysaccharides and nigericin. The abilities/functions of CBG, BAK, and Mix to suppress pro-inflammatory cytokines in FIGS. 7 and 8 were measured at a total CBD/CBG/BAK molar concentration of 20 μM. An ability/function to suppress activity of a pro-inflammatory cytokine was reflected by a remaining concentration of the pro-inflammatory cytokine after the reaction. The greater the remaining concentration of the pro-inflammatory cytokine, the worse the ability to suppress activity of the pro-inflammatory cytokine.

IL-1β = assay: suppression of IL-1β in inflammatory model, cell level; assay type: cell-based; conditions: 20 μM; LPS and nigericin model
Method: as §2
FIG. 9 is a bar diagram illustrating exemplary abilities of a composition (i.e., Mix) of CBD, CBG, and BAK at a molar concentration of 1:1:1 at different molar concentrations to suppress activity of […] according to some embodiments of the present disclosure. In FIG. 9, Model represents an inflammatory model which was different from that in FIG. 8. […]

[3] = antioxidant DPPH assay (free radical scavenging); conditions: used individually
Method: In some embodiments, the composition may have an antioxidant activity/effect. FIG. 10 is a bar diagram illustrating antioxidant effects of CBD, CBG, and BAK used individually according to some embodiments of the present disclosure. In some embodiments, data in the bar diagram in FIG. 10 was determined (e.g., measured) according to an antioxidant DPPH (i.e., α, α-diphenyl-β-picrylhydrazyl) assay that was well known for the skills in the art. An antioxidant effect was reflected by free radical scavenging after the reaction. The greater the free radical scavenging, the better the antioxidant effect.

SMILES | COX-2 inhibition corresponding to plateau (FIGS. 3A, 3B) (COX-2 [1]) | inhibition at 50 µM (COX-2 [1]) [%] | COX-2 inhibitory effect (FIG. 1) (COX-2 [1]) | COX-2 inhibitory effect compared with personal care ingredients (terpenes) (COX-2 [2]) | inhibition at 10 µM (COX-2 [2]) [%] | inhibition at 50 µM (COX-2 [2]) [%] | inhibition at 12.5 µM (COX-2 [2]) [%] | remaining concentration of TNF-α versus Model (FIG. 7) (TNF-α) | remaining concentration of IL-1β versus Model (FIG. 8) (IL-1β) | antioxidant effect, free radical scavenging (FIG. 10) [3] | antioxidant effect compared with the other compounds (FIG. 10) [3] | COX-2 Inhibition (%) (COX-2 [1]; compound used individually at 50 μM)
CCCCCc1cc(O)c(C/C=C(\C)CCC=C(C)C)c(O)c1 [CBG, cannabigerol] | about 60% | 87.4 | had a COX-2 inhibitory effect | better COX-2 inhibitory effects than the personal care ingredients | 51.9 | 65.7 | ~60 | lower than the remaining concentration of TNF-α corresponding to Model | had an activity to suppress activity of IL-113 | had an antioxidant effect |  | 
Cn1c(=O)c2c(ncn2C)n(C)c1=O [Caffeine, caffeine, reference compound] |  | 63.5 |  |  |  |  |  |  |  |  |  | 
C=C(C)[C@@H]1CCC(C)=C[C@H]1c1c(O)cc(CCCCC)cc1O [CBD, cannabidiol, reference compound] | about 60% | 71.9 | had a COX-2 inhibitory effect | better COX-2 inhibitory effects than the personal care ingredients | 42 | 52.5 | ~60 |  |  | had an antioxidant effect |  | 
C=C[C@@](C)(/C=C/c1ccc(O)cc1)CCC=C(C)C [BAK, bakuchiol] |  | 81.9 |  | better COX-2 inhibitory effects than the personal care ingredients | 45 | 67.3 | ~60 | lower than the remaining concentration of TNF-α corresponding to Model | had an activity to suppress activity of IL-113 | had an antioxidant effect | better antioxidant effect than CBG and CBG | 
NC(=O)c1ccc[n+]([C@@H]2O[C@H](COP(=O)([O-])O)[C@@H](O)[C@H]2O)c1 [NMN, nicotinamide mononucleotide] |  |  |  |  |  |  |  |  |  |  |  | 19.63
